Publication PMC6844378, “Structure activity relationship studies on Amb639752: toward the identification of a common pharmacophoric structure for DGKα inhibitors” (Journal of Enzyme Inhibition and Medicinal Chemistry, 2019)
Entries after “also recorded” stand apart in the source; their conditions may differ.

Experiments:
DGKζ = target: T1, DGKζ (Homo sapiens, UniProt Q13574); test: Isoform specificity, DGKζ homogenates of transfected 293T cells; assay type: biochemical; conditions: 100 µM; 293T homogenates
T1 construct: expressed in transfected cells; host or cells: 293T cells, transient transfection (Lipofectamine 3000), crude homogenate
Method: (§1) 293T cells were transiently transfected with indicated DGK isoform plasmid DNA using Lipofectamine 3000, Invitrogen (Carlsbad, CA). Forty eight hours after transfection, cells were harvested and homogenised with a 29 G-needle using 500 µL of homogenate buffer for each dish and immediately stored in aliquots at –80 °C. Cells transfected with empty vector were used as controls, overexpressed DGK has an activity >50 folds the endogenous.
(§2) Essentionally, the same procedure was followed as reported previously in Velnati et al.[9] In brief, DGK activity was assayed by measuring initial velocities (5 min at 27 °C) in presence of saturating substrate concentrations. Reaction conditions: 0.9 µg/µL 1,2-dioleoyl-sn-glycerol, 5 mM ATP, 0.01 µCi/µL [γ^32P]-ATP, 1 mM sodium orthovanadate, 10 mM MgCl2, 1.2 mM EGTA in 7.5 mM Hepes pH 8[12]. Reaction mixture is assembled mixing enzyme (24.5 µL of homogenate), 100× inhibitor or DMSO (0.5 µL), 5× ATP solution (10 µL of 25 mM ATP, 0.05 µCi/µL [γ^32P]-ATP (Perkin-Elmer, Milan, Italy), 5 mM sodium orthovanadate, 50 mM MgCl2), and 3.3× DAG solution (15 µL of 3 µg/µL 1,2-dioleoyl-sn-glycerol resuspended by sonication in 4 mM EGTA in 25 mM Hepes pH 8). […] TLC was run 10 cm and dried before radioactive signals were detected by GS-250 molecular imager and was quantified by quantity one (Bio-Rad, Hercules, CA) software assuring the absence of saturated spots. […]

DGKθ = target: T2, DGKθ (Homo sapiens, UniProt P52824); test: Isoform specificity, DGKθ homogenates of transfected 293T cells; assay type: biochemical; conditions: 100 µM; 293T homogenates
T2 construct: expressed in transfected cells; host or cells: 293T cells, transient transfection (Lipofectamine 3000), crude homogenate
T2 sequence (P52824 1-942): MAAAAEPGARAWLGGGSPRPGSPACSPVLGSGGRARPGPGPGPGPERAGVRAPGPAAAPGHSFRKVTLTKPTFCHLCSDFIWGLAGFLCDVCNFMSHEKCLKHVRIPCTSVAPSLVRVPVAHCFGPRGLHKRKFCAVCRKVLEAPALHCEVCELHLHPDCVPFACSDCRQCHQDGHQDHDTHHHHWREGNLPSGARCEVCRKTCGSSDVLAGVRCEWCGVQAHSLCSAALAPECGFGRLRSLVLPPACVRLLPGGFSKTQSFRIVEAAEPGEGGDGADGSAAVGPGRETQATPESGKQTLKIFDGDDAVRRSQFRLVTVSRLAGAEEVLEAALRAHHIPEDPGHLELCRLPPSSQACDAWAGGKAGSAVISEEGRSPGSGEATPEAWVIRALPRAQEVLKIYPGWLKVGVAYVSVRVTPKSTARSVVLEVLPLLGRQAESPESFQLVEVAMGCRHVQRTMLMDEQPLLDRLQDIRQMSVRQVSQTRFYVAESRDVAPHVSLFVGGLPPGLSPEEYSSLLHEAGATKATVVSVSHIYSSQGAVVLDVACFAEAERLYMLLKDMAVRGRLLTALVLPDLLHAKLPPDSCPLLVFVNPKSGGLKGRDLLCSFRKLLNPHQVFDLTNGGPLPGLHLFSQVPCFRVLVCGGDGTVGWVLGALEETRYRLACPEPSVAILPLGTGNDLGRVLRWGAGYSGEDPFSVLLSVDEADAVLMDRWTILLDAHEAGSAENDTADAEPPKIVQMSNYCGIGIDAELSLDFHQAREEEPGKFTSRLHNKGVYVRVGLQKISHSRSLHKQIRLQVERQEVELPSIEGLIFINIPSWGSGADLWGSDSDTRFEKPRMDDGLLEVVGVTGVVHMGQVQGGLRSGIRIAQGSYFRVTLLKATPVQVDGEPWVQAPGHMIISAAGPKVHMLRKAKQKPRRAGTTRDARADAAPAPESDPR
Method: as §1, §2

serotonin receptors = test system: serotonin receptors; parameters: method as in PMID 30611057; conditions: cited from earlier work
MCF7 cells = test: Migration assay (serum induced wound healing); assay type: cell-based; conditions: 10 µM, 15 h, in presence of serum, vs vehicle (DMSO)
Method: Michigan Cancer Foundation 7 (MCF7) cells were cultured in DMEM with 10% FBS + 1% penicillin/streptomycin and cultures were maintained by splitting them for every 2–3 days using trypsin–EDTA 0.25%.
Cell migration assays were performed using the Culture-Insert 2 well in µ-Dish (ibidi GmbH, Martinsried, Germany).
Briefly, 25,000 MCF7 cells were plated in each well and cultured for 24 h. The day after, the culture insert was removed and the cells were washed with PBS before treating them with respective DGKα inhibitors (10 µM) or DMSO for 15 h in complete medium (DMEM 10% FBS + 1% penicillin/streptomycin), while medium without FBS was used as a negative control for migration.
Phase-contrast pictures were taken immediately after treatment (0 h) and after 15 h under 5× magnification.
Finally, wound areas were determined using ImageJ software (NIH, , Bethesda, MD). Wound reduction was calculated by using the following formula: (wound area at 15 h/wound at 0 h)×100, the values obtained were expressed as the percentage of wound area compared to the initial area.
To evaluate if our newly synthetised DGKα inhibitors were effective in impairing cancer cell migration, we measured serum induced wound healing in MCF7 breast cancer cells in presence of 10 µM inhibitor. […]
Figure 10. […] Results are expressed as the percentage of wound area compared to the initial area. […]

T1 sequence (Q13574 whole entry, species assumed, canonical isoform): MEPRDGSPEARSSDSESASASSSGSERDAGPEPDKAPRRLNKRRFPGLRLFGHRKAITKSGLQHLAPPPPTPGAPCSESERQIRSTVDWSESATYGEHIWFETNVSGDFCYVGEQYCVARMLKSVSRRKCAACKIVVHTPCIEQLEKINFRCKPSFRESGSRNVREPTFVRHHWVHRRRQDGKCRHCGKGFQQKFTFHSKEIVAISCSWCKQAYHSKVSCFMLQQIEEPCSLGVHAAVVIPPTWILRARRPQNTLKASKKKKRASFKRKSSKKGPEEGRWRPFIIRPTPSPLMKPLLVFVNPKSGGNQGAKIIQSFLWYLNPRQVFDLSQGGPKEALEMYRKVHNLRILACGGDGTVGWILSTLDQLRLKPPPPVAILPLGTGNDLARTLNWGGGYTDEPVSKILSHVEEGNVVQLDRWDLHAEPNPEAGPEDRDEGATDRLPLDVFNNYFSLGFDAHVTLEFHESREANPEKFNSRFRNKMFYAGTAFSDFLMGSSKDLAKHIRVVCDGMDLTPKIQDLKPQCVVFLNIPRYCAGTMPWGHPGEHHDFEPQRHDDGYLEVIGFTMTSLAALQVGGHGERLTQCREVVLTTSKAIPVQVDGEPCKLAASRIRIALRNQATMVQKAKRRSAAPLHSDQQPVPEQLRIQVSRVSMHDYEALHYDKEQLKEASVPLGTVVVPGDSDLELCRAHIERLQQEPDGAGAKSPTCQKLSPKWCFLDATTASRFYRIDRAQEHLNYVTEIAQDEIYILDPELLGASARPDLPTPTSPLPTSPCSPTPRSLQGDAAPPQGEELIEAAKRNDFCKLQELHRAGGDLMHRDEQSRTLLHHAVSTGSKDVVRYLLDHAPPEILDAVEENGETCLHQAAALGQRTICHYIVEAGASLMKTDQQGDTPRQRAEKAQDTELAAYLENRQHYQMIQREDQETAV

effect on DGKζ activity (DGKζ) | effect on DGKθ activity (DGKθ) | Structure (SMILES) | anti-serotoninergic activity (serotonin receptors) | cell migration (wound closure) (MCF7 cells)
do not have significant effects | do not have significant effects | Cc1ccc2c(C(=O)CN3CCN(C(=O)c4ccco4)CC3)c(C)[nH]c2c1 [Amb639752] | no effects on serotonin activity; also recorded: devoid of anti-serotoninergic activity | –
– | – | Cc1ccc2c(C(=O)CN3CCN(C(=O)c4ccc(Cl)cc4)CC3)c(C)[nH]c2c1 [Compound 11, 2-(4-(4-Chlorobenzoyl)piperazin-1-yl)-1-(2,6-dimethyl-1H-indol-3-yl)ethan-1-one] | – | reduce the migration
– | activator | Cc1ccc(C(=O)N2CCN(CC(=O)c3c(C)[nH]c4cc(C)ccc34)CC2)cc1 [Compound 20, 1-(2,6-Dimethyl-1H-indol-3-yl)-2-(4-(4-methylbenzoyl)piperazin-1-yl)ethan-1-one] | – | reduce the migration
